Measured values as given in US9902711B2, “Piperidine compounds having multimodal activity against pain” (LABORATORIOS DEL DR. ESTEVE S.A., priority 2013, dated 2018).
pKi: −log10 of the molar value.

What follows are compounds tested on human σ1 receptor and human μ-opioid receptor (assay: Human σ1 receptor radioligand assay and human μ-opioid receptor radioligand assay (results reported only as combined μ and σ1 dual binding)). Settings: Ki at human σ1 receptor (HEK-293 membranes, [3H](+)-pentazocine) and human μ-opioid receptor (CHO-K1 membranes, [3H]-DAMGO), one combined class.
Design: key to μ and σ1 dual binding: +: Both Ki-μ and Ki-σ1>=500 nM; ++: One Ki<500 nM while the other Ki is >=500 nM; +++: Both Ki-μ and Ki-σ1<500 nM; ++++: Both Ki-μ and Ki-σ1<100 nM
Protocol: To investigate binding properties of σ1 receptor ligands to human σ1 receptor, transfected HEK-293 membranes and [^3H](+)-pentazocine (Perkin Elmer, NET-1056), as the radioligand, were used. The assay was carried out with 7 μg of membrane suspension, 5 nM of [^3H](+)-pentazocine in either absence or presence of either buffer or 10 μM Haloperidol for total and non-specific binding, respectively. Binding buffer contained Tris-HCl 50 mM at pH 8. Plates were incubated at 37° C. for 120 minutes. After the incubation period, the reaction mix was then transferred to MultiScreen HTS, FC plates (Millipore), filtered and plates were washed 3 times with ice-cold 10 mM Tris-HCL (pH7.4). Filters were dried and counted at approximately 40% efficiency in a MicroBeta scintillation counter (Perkin-Elmer) using EcoScint liquid scintillation cocktail
To investigate binding properties of μ-opioid receptor ligands to human μ-opioid receptor, transfected CHO-K1 cell membranes and [^3H]-DAMGO (Perkin Elmer, ES-542-C), as the radioligand, were used. The assay was carried out with 20 μg of membrane suspension, 1 nM of [^3H]-DAMGO in either absence or presence of either buffer or 10 μM Naloxone for total and non-specific binding, respectively. Binding buffer contained Tris-HCl 50 mM, MgCl2 5 mM at pH 7.4. Plates were incubated at 27° C. for 60 minutes. After the incubation period, the reaction mix was then transferred to MultiScreen HTS, FC plates (Millipore), filtered and plates were washed 3 times with ice-cold 10 mM Tris-HCL (pH 7.4). Filters were dried and counted at approximately 40% efficiency in a MicroBeta scintillation counter (Perkin-Elmer) using EcoScint liquid scintillation cocktail.
`COc1cccc(C2CCN(Cc3cn(Cc4ccc(F)cn4)nn3)CC2)c1` [Example 16, 5-fluoro-2-((4-((4-(3-methoxyphenyl)piperidin-1-yl)methyl)-1H-1,2,3-triazol-1-yl)methyl)pyridine] was tested, and the “μ and σ1 dual binding” value was “++”. With `CC(=O)Oc1cccc(C2CCN(Cc3cn(-c4ccccc4)nn3)CC2)c1` [Example 9, 3-(1-((1-phenyl-1H-1,2,3-triazol-4-yl)methyl)piperidin-4-yl)phenyl acetate] the pKi was over 7.00. For `CC(=O)Oc1cccc(C2CCN(Cc3cn(Cc4ccccn4)nn3)CC2)c1` [Example 3, 3-(1-((1-(pyridin-2-ylmethyl)-1H-1,2,3-triazol-4-yl)methyl)piperidin-4-yl)phenyl acetate], the “μ and σ1 dual binding” value was “++”. In the case of `COCCCOc1cccc(C2CCN(Cc3cn(-c4ccccc4)nn3)CC2)c1` [Example 11, 4-(3-(3-methoxypropoxy)phenyl)-1-((1-phenyl-1H-1,2,3-triazol-4-yl)methyl)piperidine], the pKi was over 6.30. In the case of `COc1cccc(C2CCN(Cc3cn(Cc4ccccn4)nn3)CC2)c1` [Example 12, 2-((4-((4-(3-methoxyphenyl)piperidin-1-yl)methyl)-1H-1,2,3-triazol-1-yl)methyl)pyridine], the “μ and σ1 dual binding” value was “++”. `CC(C)[C@H](N)C(=O)Oc1cccc(C2CCN(Cc3cn(Cc4ccccn4)nn3)CC2)c1` [Example 6, (S)-3-(1-((1-(pyridin-2-ylmethyl)-1H-1,2,3-triazol-4-yl)methyl)piperidin-4-yl)phenyl 2-amino-3-methylbutanoate] was tested, and the pKi was over 6.30. In the case of `COc1cccc(C2CCN(Cc3cn(Cc4ncccc4F)nn3)CC2)c1` [Example 15, 3-fluoro-2-((4-((4-(3-methoxyphenyl)piperidin-1-yl)methyl)-1H-1,2,3-triazol-1-yl)methyl)pyridine], the “μ and σ1 dual binding” value was “++”. `COc1cccc(C2CCN(Cc3cn(C(CO)c4ccccc4)nn3)CC2)c1` (centres unmarked) [Example 17, 2-(4-((4-(3-methoxyphenyl)piperidin-1-yl)methyl)-1H-1,2,3-triazol-1-yl)-2-phenylethanol] was tested, and the “μ and σ1 dual binding” value was “++”. `O=C(Nc1ccc(C(=O)O)cc1)Oc1cccc(C2CCN(Cc3cn(Cc4ccccn4)nn3)CC2)c1` [Example 4] was tested, and the pKi was over 6.30. For `COc1cccc(C2CCN(Cc3cn(-c4ccc(F)cc4)nn3)CC2)c1` [Example 2, 1-((1-(4-fluorophenyl)-1H-1,2,3-triazol-4-yl)methyl)-4-(3-methoxyphenyl)piperidine], the “μ and σ1 dual binding” value was “++”. For `CN(C)C(=O)Oc1cccc(C2CCN(Cc3cn(-c4ccccc4)nn3)CC2)c1` [Example 8, 3-(1-((1-phenyl-1H-1,2,3-triazol-4-yl)methyl)piperidin-4-yl)phenyl dimethylcarbamate], the pKi was over 6.30. For `COCCOc1cccc(C2CCN(Cc3cn(-c4ccccc4)nn3)CC2)c1` [Example 10, 4-(3-(2-methoxyethoxy)phenyl)-1-((1-phenyl-1H-1,2,3-triazol-4-yl)methyl)piperidine], the pKi was over 6.30. In the case of `CC(C)[C@H](NC(=O)Oc1cccc(C2CCN(Cc3cn(Cc4ccccn4)nn3)CC2)c1)C(=O)O` [Example 13], the pKi was at most 6.30. For `O=C(Oc1cccc(C2CCN(Cc3cn(Cc4ccccn4)nn3)CC2)c1)[C@@H]1CCCN1` [Example 18, (S)-3-(1-((1-(pyridin-2-ylmethyl)-1H-1,2,3-triazol-4-yl)methyl)piperidin-4-yl)phenyl pyrrolidine-2-carboxylate], the pKi was over 6.30. For `CCNC(=O)Oc1cccc(C2CCN(Cc3cn(-c4ccccc4)nn3)CC2)c1` [Example 1, 3-(1-((1-phenyl-1H-1,2,3-triazol-4-yl)methyl)piperidin-4-yl)phenyl ethylcarbamate], the pKi was over 6.30. Work on `N[C@@H](Cc1ccccc1)C(=O)Oc1cccc(C2CCN(Cc3cn(Cc4ccccn4)nn3)CC2)c1` [Example 19, (S)-3-(1-((1-(pyridin-2-ylmethyl)-1H-1,2,3-triazol-4-yl)methyl)piperidin-4-yl)phenyl 2-amino-3-phenylpropanoate] yielded a pKi of over 6.30. Compound `O=C(O)CNC(=O)Oc1cccc(C2CCN(Cc3cn(Cc4ccccn4)nn3)CC2)c1` [Example 14] has a pKi of at most 6.30. `CC(C)C(=O)Oc1cccc(C2CCN(Cc3cn(Cc4ccccn4)nn3)CC2)c1` [Example 5, 3-(1-((1-(pyridin-2-ylmethyl)-1H-1,2,3-triazol-4-yl)methyl)piperidin-4-yl)phenyl isobutyrate] was tested, and the pKi was over 6.30. Compound `NC1(C(=O)Oc2cccc(C3CCN(Cc4cn(Cc5ccccn5)nn4)CC3)c2)CCCCC1` [Example 20, 3-(1-((1-(pyridin-2-ylmethyl)-1H-1,2,3-triazol-4-yl)methyl)piperidin-4-yl)phenyl 1-aminocyclohexanecarboxylate] has a pKi of at most 6.30. `COc1cccc(C2CCN(Cc3cn(-c4ccccc4)nn3)CC2)c1` [Example 7, 4-(3-methoxyphenyl)-1-((1-phenyl-1H-1,2,3-triazol-4-yl)methyl)piperidine] was tested, and the pKi was over 6.30.
